Source: patent US20060034856A1, “Epha2 antigen t epitopes” (priority 2002, published 2006)
Ends that are not written are not given here.

How the values were obtained:
HLA-A*0201 [1] = target: T1, HLA-A*0201 (Homo sapiens, UniProt P04439, D140Y/D185E/D98H/E176V/E277Q/G131W/G231S/I119V/I121R/I166T/I218V/L300P/L318F/N151K/N90K/P208A/P217A/Q86G/Q94H/R138H/R169H/T345S); settings: ratio of peptide to reference peptide (HIVpol 589) concentration inducing 20% of fluorescence of 100 μM reference; T2 cells; lower RA = stronger binding; mean of at least three experiments
Description: The immunogenicity of these peptides was evaluated by measuring their affinity for HLA-A*0201. This is defined by two parameters: the relative affinity (RA) which reflects the ability of the peptides to bind to HLA-A*0201, and the rate of dissociation of the HLA-A*0201/peptide complexes (DC50), which reflects their stability.
Human T2 cells (Firat et al., Eur. J. Immunol., 29, 3112, 1999) (3×10^5 cells/ml), which are deficient in TAP transporters, are incubated at 37° C. for 16 hours with various concentrations (100 μM, 10 μM, 1 μM, 0.1 μM) of each test peptide, in serum-free RPMI 1640 medium supplemented with 100 ng/ml of human β2-microglobulin. Next, they are washed twice and labeled with the monoclonal antibody BB7.2 (Parham et al., Hum. Immunol., 3, 4, 277-299, 1981) which is specific for the HLA-A*0201 molecule, and then with a goat anti-mouse Ig antibody coupled to fluorescein isothiocyanate (FITC).
These cells are then analyzed by flow cytometry. […] The relative affinity (RA) is defined as the ratio of the concentration of each peptide that induces 20% of the fluorescence obtained with 100 μM of the reference peptide, to the concentration of the reference peptide that induces 20% of the fluorescence obtained with 100 μM of said reference peptide. […] The mean RA for each peptide is determined from at least three independent experiments.

HLA-A*0201 [2] = target: T1, HLA-A*0201; assay: Stability of HLA-A*0201/peptide complexes (DC50) on T2 cells; format: binding; parameters: endogenous in cells; host or cells: human T2 cells (TAP-deficient); settings: time for loss of 50% of HLA-A*0201/peptide complexes stabilized at t=0, 100 μM peptide, 37° C.
Description: The immunogenicity of these peptides was evaluated by measuring their affinity for HLA-A*0201. This is defined by two parameters: the relative affinity (RA) which reflects the ability of the peptides to bind to HLA-A*0201, and the rate of dissociation of the HLA-A*0201/peptide complexes (DC50), which reflects their stability. The high-affinity peptides (RA<5 and DC50>2 hrs) are potentially immunogenic, unlike the low-affinity peptides (RA>5 and DC50<2 hrs).
T2 cells (10^6/ml) are incubated overnight at 37° C. with 100 μM of each test peptide, in serum-free RPMI 1640 medium supplemented with 100 ng/ml of human β2-microglobulin. Next, they are washed four times in order to remove the free peptides, incubated with BREFELDIN A (Sigma; 10 μg/ml) for one hour in order to prevent the expression at their surface of newly synthesized HLA-A*0201 molecules, washed, and incubated at 37° C. for 0, 2, 4, 6 or 8 hours in the presence of BREFELDIN A (0.5 μg/ml). For each incubation time, the cells are then labeled, as indicated above, with the BB7.2 antibody and analyzed by flow cytometry in order to evaluate the amount of peptide/HLA-A*0201 complex present at their surface. This amount is evaluated by means of the formula: (mean fluorescence of the T2 cells preincubated with the peptide−mean fluorescence of the T2 cells treated under similar conditions in the absence of peptide). The DC50 (dissociation complex: DC) is defined as being the time (in hours) required for the loss of 50% of the HLA-A*0201/peptide complexes which are stabilized at t=0.

[3] = target: T2, HLA-A*0201 molecule on human T2 cells (human); assay: T2 cell HLA-A*0201 stabilisation, flow cytometry with BB7.2; peptide concentration giving 20% of reference fluorescence, relative to HIVpol 589
T2 construct: MHC class I molecule on T2 cells

DMPIYMYSV [p61]
RA (relative affinity) (HLA-A*0201 [1]): >10

IMNDMPIYM [p58, IMNDMPIYM]
RA (relative affinity) (HLA-A*0201 [1]): 1 | DC50 (HLA-A*0201 [2]): 4 h

TLADFDPRV [p883, TLADFDPRV]
DC50 (HLA-A*0201 [2]): 2 to 4 h

VLAGVGFFI [p550, VLAGVGFFI]
RA (relative affinity) (HLA-A*0201 [1]): 1 | DC50 (HLA-A*0201 [2]): 4 to 6 h

VLLLVLAGV [p546, VLLLVLAGV]
RA (relative affinity) (HLA-A*0201 [1]): 1.4 | DC50 (HLA-A*0201 [2]): 4 to 6 h

YMPIYMYSV [p61Y, YMPIYMYSV]
RA (relative affinity) (HLA-A*0201 [1]): 1.5

B1: p58 peptide of EphA2 (peptide)
peptide: IMNDMPIYM
notes: Synthetic 9-mer fragment of the human EphA2 antigen (SYNT:EM), purity >85%
RA (relative affinity) [3]: 1 ratio to reference peptide

B2: p550 peptide of EphA2 (peptide)
peptide: VLAGVGFFI
notes: Synthetic 9-mer fragment of the human EphA2 antigen
RA (relative affinity) [3]: 1 ratio to reference peptide

B3: p546 peptide of EphA2 (peptide)
peptide: VLLLVLAGV
notes: as for B2
RA (relative affinity) [3]: 1.4 ratio to reference peptide

B4: p61Y variant peptide (peptide)
peptide: YMPIYMYSV
notes: Variant of p61 in which the N-terminal aspartic acid is replaced by tyrosine
RA (relative affinity) [3]: 1.5 ratio to reference peptide

B5: p883 peptide of EphA2 (peptide)
peptide: TLADFDPRV
notes: as for B2
RA (relative affinity) [3]: 2.2 ratio to reference peptide
